Laboratory results taken from ChEMBL document CHEMBL1157539, “Thousands of chemical starting points for antimalarial lead identification” (Nature, 2010).

What follows are molecules tested on Plasmodium falciparum (assay: GSK_TCMDC: Inhibition of Plasmodium falciparum 3D7 in whole erythrocytes, using parasite LDH activity as an index of growth.). Conditions: Plasmodium falciparum, 3D7.
Type: functional, organism-based

Row | Structure (SMILES) | XC50 [nM]
1 | Cc1cc(N/N=C/c2cccc([N+](=O)[O-])c2)c2cc(F)ccc2n1 | 595
2 | Cc1[nH]c(C)c(-c2ccc(Oc3ccc(Cl)cc3)cc2)c(=O)c1Cl | 787
3 | CCN(CC)CCNc1ccc(Nc2ccnc3cc4ccccc4cc23)cc1 | 197
4 | Cc1cc(N[C@@H](Cc2ccccc2)C(=O)NCc2cccs2)nc(NCCc2ccccc2)n1 | 790
5 | COc1cccc(C(=O)NC(c2ccccc2OC)c2cc(Cl)c3cccnc3c2O)c1 (configuration not stated) | 1190
6 | Cc1cc(C)c(C(=O)Nc2n[nH]c3nnc(-c4cccc(F)c4F)cc23)c(C)c1 | 1070
7 | O=c1cc(NCCCNCc2cccc(Oc3ccccc3)c2)[nH]c2ccccc12 | 946
8 | CC(Cc1ccc(NC(=O)c2ccc(CNCCCCc3ccccc3)cc2)cc1)NCCc1cccc(Cl)c1 (configuration not stated) | 334
9 | O=C(NCc1cccc(Cl)c1)c1ccc(CNC2CCN(Cc3ccccc3)CC2)cc1 | 884
10 | CCOc1ccc2c(c1)C(C)(c1ccc3c(c1)C(C)CC(C)(C)N3)CC(C)(C)N2 (configuration not stated) | 803
11 | OC(CNc1ccnc(Nc2cccc(Cl)c2)n1)c1cccc(F)c1 (configuration not stated) | 973
12 | Cc1ccc2nc3sc(C(=O)NCCCN4CCC(N5CCCCC5)CC4)cc3cc2c1 | 675
13 | FC(F)(F)c1cccc(-c2cc(NCCCn3ccnc3)nc(-c3ccncc3)n2)c1 | 105
14 | C[C@H]1CN(Cc2cccc(-c3cc(CNC(=O)c4cccc(CN5CCN(C/C=C/c6ccccc6)CC5)c4)ccc3F)c2)CCN1 | 852
15 | CC1(C)N=C(N)N=C(N)N1OCC1COc2ccccc2O1 (configuration not stated) | 35
16 | Cc1cc(Nc2ccccc2)nc(Nc2ccccc2C)n1 | 1040
17 | C=CCc1ccccc1OCC(O)CN(C1CCCCC1)C1CCCCC1 (configuration not stated) | 814
18 | COc1cc(Cc2cnc(N)nc2N)cc(OCCCC#N)c1OC | 1030
19 | Cc1cccc2nc(-c3ccc(-c4cccc(CNCCNC(=O)c5ccnn5C)c4)cc3)[nH]c12 | 396
20 | CC(=O)Nc1ccc(C(=O)Nc2cccc(-c3ccc(-c4nc5cc(C(F)(F)F)ccc5[nH]4)cc3)c2)cn1 | 231
21 | CS(=O)(=O)Cc1ccc(Nc2nccc(-c3c(-c4cccc(NC(=O)c5c(F)cccc5F)c4)nn4ncccc34)n2)cc1 | 162
22 | COc1cc(-c2nc(-c3ccc([N+](=O)[O-])cc3)c(-c3ccccc3)[nH]2)cc(OC)c1O | 830
23 | CCC(Nc1noc(-c2c(-c3ccccc3)noc2C)n1)c1ccccc1 (configuration not stated) | 973
24 | COc1ccc(-c2ccc([N+](=O)[O-])cc2C(=O)NCC(C)Oc2ccc(C(F)(F)F)cc2)cc1 (configuration not stated) | 550
25 | CC(C)OC(=O)c1ccccc1S(N)(=O)=O | 674

Row | Structure (SMILES) | XC50 [nM]
26 | Cc1c(Cn2nc(Cl)c(N3CCNCC3)cc2=O)cccc1NC(=O)Nc1ccc(-c2ccccc2)cc1 | 1380
27 | N#Cc1cccc(Nc2nccc(NCC(O)c3cccc(C(F)(F)F)c3)n2)c1 (configuration not stated) | 553
28 | c1ccc(CCNCc2cccc(-c3ccc(CNc4ccc5ncccc5c4)cc3)c2)cc1 | 810
29 | CCN(CCCN1CCCCC1)c1cc(C)nc(Nc2ccc(C)c(C)c2)n1 | 1020
30 | O=C(Nc1cccc(F)c1)c1ccc(C(=O)NC2CCN(CC3CCCCC3)CC2)cc1 | 863
31 | O=C(NCc1ccc(F)cc1)Nc1cccc(-c2ccc(-c3nc4cc(F)ccc4[nH]3)cc2)c1 | 226
32 | C/C(=C\C(=O)NC1CC1)c1ccccc1OCc1ccccc1 | 504
33 | CCc1ccc(NC(=O)c2cccc(CN3CCCN(CC4CCCCC4)CC3)c2)cc1 | 952
34 | CCOC(=O)c1ccc(OCCOc2ccccc2)cc1 | 367
35 | CN(C)Cc1ccc(-c2cccc(NC(=O)c3cccc(Cl)c3)c2)cc1 | 693
36 | O=S(=O)(Nc1cc2c(cc1O)CCN(C1CCC1)CC2)c1ccc(-c2ccc(F)cc2)cc1 | 417
37 | COc1ccc(-c2cc(C(=O)N[C@@H](CC3CCCCC3)C(=O)NC3CCCc4ccccc43)ccc2O)cc1 (some centres not stated) | 688
38 | COc1ccc2nccc([C@@H](O)CN3CCC(NC(=O)c4cc5c(F)cc(F)cc5[nH]4)CC3)c2c1 | 245
39 | O=C(Nc1cccc(C(F)(F)F)c1)c1cccc2nc(C(F)(F)F)[nH]c12 | 644
40 | c1csc(-c2ccc3c(c2)CC(NCc2c[nH]c4cnccc24)C3)c1 (configuration not stated) | 738
41 | Cc1ccc(NC(=O)c2ccc3nccnc3c2)cc1OC1CCN(Cc2ccc(F)cc2)CC1 | 1010
42 | COc1ccc(N2CCN(CCCCNC(=O)c3ccc(NC(=O)c4ccc(Cl)cc4)cc3)CC2)c(OC)c1 | 951
43 | COc1ccc(-c2ccc(CN(C)C3CCC(NC(=O)c4cc5ccccc5[nH]4)CC3)cc2)cn1 (configuration not stated) | 871
44 | COc1ccc2nccc([C@@H](O)CN3CCC(NC(=O)C(c4cc5ccccc5s4)N4CC(C)OC(C)C4)CC3)c2c1 (some centres not stated) | 981
45 | CC(C)COc1ccc2ccccc2c1CNCCCCCCNCc1c(OCC(C)C)ccc2ccccc12 | 695
46 | O=[N+]([O-])c1cccc(NC(=S)N2CCCN(Cc3ccc(C(F)(F)F)cc3)CC2)c1 | 1200
47 | CCCC(C)Nc1nc(C)cc(N[C@@H](Cc2ccccc2)C(=O)NCc2cccc(F)c2)n1 (some centres not stated) | 882
48 | Cc1ccc(C2CCN(CCCCNC(=O)c3ccc(NC(=O)c4ccc(Cl)cc4)cc3)CC2)c(C)c1 | 842
49 | COc1ccc(C2C(C(=O)Nc3cc(OC)c(OC)c(OC)c3)c3cc(OC)c(OC)cc3C(=O)N2C)cc1 (configuration not stated) | 801
50 | O=C(NC1CCN(CCCOc2ccnc3cc(Cl)ccc23)C1)c1ccc(Br)cc1 (configuration not stated) | 1020

Row | Structure (SMILES) | XC50 [nM]
51 | CCN(CC)CCCNc1ncc2c(-c3ccc(NC(=O)Nc4cc(C(F)(F)F)ccc4F)c(F)c3)nn(C)c2n1 | 272
52 | CC(Cc1ccc(COc2ccc(CC(CO)NCCc3cccc(Cl)c3)cc2)cc1)NCCc1cccc(Cl)c1 (configuration not stated) | 821
53 | N#Cc1ccc(NC(=O)NC2CCN(CCCCCNC(=O)/C=C/c3ccc(Cl)c(Cl)c3)CC2)cc1 | 800
54 | CC(C)(CNC(=O)/C=C/c1ccc(C(F)(F)F)cc1)CNc1cc(=O)c2ccccc2[nH]1 | 912
55 | CCCc1cc(=O)oc2cc(OC)c(C(=O)CC(C)C)c(OC)c12 | 1010
56 | OC(c1ccccc1)C1CN(CCc2ccccc2)CCC1(O)c1ccccc1 (configuration not stated) | 1040
57 | CN(C)CCN(C)Cc1ccc(-c2cccc(NC(=O)c3cccc(C#N)c3)c2)cc1 | 1180
58 | CN1C2CCC1c1cc(NC(=O)c3cc(-c4ccc(Cl)cc4)cs3)ccc12 (configuration not stated) | 1300
59 | CCCC(C)Nc1nc(C)cc(N[C@@H](CC(C)C)C(=O)NCc2cccc(F)c2)n1 (some centres not stated) | 1000
60 | N#Cc1ccc(N/C(=N\c2cccc(Cl)c2Cl)NCc2ccc(Cl)cc2Cl)c(O)c1 | 1120
61 | O=C(CCc1nc2c(cnn2-c2ccccc2)c(=O)[nH]1)NC1CCSc2ccccc21 (configuration not stated) | 1060
62 | c1cc(CNCCN2CCNCC2)cc(-c2cccc(-c3nc4ccccc4[nH]3)c2)c1 | 959
63 | Fc1ccccc1COc1ccc(Nc2ncnc3ccc(I)cc23)cc1Cl | 930
64 | C[C@H](Cc1ccc(OCCCCOc2ccc(C[C@@H](C)NC[C@H](O)c3cccc(Cl)c3)cc2)cc1)NC[C@H](O)c1cccc(Cl)c1 | 756
65 | CN(C)CCNC(=O)N1CCCN(c2ncnc3cc(-c4ccc(Cl)cc4)sc23)CC1 | 1020
66 | COc1cncc(/C=C/c2cncc(C(=O)NCCc3ccc(Cl)cc3Cl)c2)c1 | 879
67 | CN1CCN(c2ccnc3ccc(NC(=O)Nc4ccc(-c5ccncc5)c(C#N)c4)cc23)CC1 | 158
68 | Cc1nnsc1C(=O)Nc1cccc(-c2cccc(-c3nc4cc(F)ccc4[nH]3)c2)c1 | 218
69 | COc1ccc2nccc([C@@H](O)CNCCCN(C)CCOc3cc(F)cc(F)c3)c2c1 | 789
70 | O=C(/C=C/c1ccc(F)c(C(F)(F)F)c1)N1CCC(CN2CCC(c3c[nH]c4ccccc34)CC2)CC1 | 917
71 | CCCCC(CC)NC(=O)[C@H]1CNCCN1C(=O)CCCc1ccccc1 (some centres not stated) | 885
72 | COc1ccc(CN2CCN(CCOC(c3ccccc3)c3ccc(Cl)cc3)CC2)c(O)c1 (configuration not stated) | 713
73 | CCNc1cc(C(=O)N[C@@H](Cc2ccccc2)[C@H](O)CNC(CC)c2cccc(Cl)c2)cc(N2CCCCS2(=O)=O)c1 (some centres not stated) | 51.7
74 | O=C(Nc1ccsc1)Nc1cccc(-c2cccc(-c3nc4cc(F)ccc4[nH]3)c2)c1 | 199
75 | CC(C)C[C@H](NC(=O)[C@H](Cc1ccccc1)NC(=O)CCN1C(=O)COc2ccc(C(=O)O)cc21)C(=O)NC(CC1CCCCC1)C(O)CC(=O)NCCCn1ccnc1 (some centres not stated) | 970

Row | Structure (SMILES) | XC50 [nM]
76 | Nc1nc(F)nc2nc[nH]c12 | 432
77 | CN(Cc1cnc2nc(N)nc(N)c2n1)c1ccc(C(=O)N[C@H](CCC(=O)OC(C)(C)C)C(=O)N[C@@H](CCC(=O)OC(C)(C)C)C(=O)OC(C)(C)C)cc1 | 1020
78 | Cn1nc(-c2ccc(S(=O)(=O)N3CCC(CCN4CCC(c5c[nH]c6ccccc56)CC4)CC3)s2)cc1C(F)(F)F | 815
79 | Cc1cccc2nc(-c3ccc(-c4cccc(NC(=O)C(=O)c5cccn5C)c4)cc3)[nH]c12 | 976
80 | CCN1CCN(C(=O)NC(C(=O)N(C)Cc2ccc(-c3ccc(C(F)(F)F)cc3)cc2)c2cccs2)C(=O)C1=O (configuration not stated) | 356
81 | C=CCc1cc(Cc2cnc(N)nc2N)c2ccc(C)nc2c1OC | 691
82 | CN(C)CCCNc1ccnc2cc(Cl)ccc12 | 283
83 | CCc1nc(N)nc(N)c1-c1ccc2c(c1)CCCC2 | 196
84 | COc1cc(Cc2cnc(N)nc2N)cc(OCCCCC#N)c1OC | 1040
85 | CC(C)(C)OC(=O)N[C@@H](Cc1ccccc1)C(=O)Nc1cccc(-c2cccc(NC(=O)[C@H](Cc3ccccc3)NC(=O)OC(C)(C)C)c2)c1 | 609
86 | Cc1ccc(S(=O)(=O)NC(=N)NC(N)=O)cc1 | 794
87 | C[C@H]1CN(Cc2cccc(-c3cc(CNC(=O)c4cccc(CC5CCN(C)CC5)c4)ccc3F)c2)CCN1C | 1090
88 | CC1(C)N=C(N)N=C(N)N1OCc1cccc(C#N)c1 | 7.93
89 | Oc1ccc(-c2cncc(NCc3ccc(F)c(F)c3)c2)cc1 | 768
90 | Fc1ccc2[nH]c(-c3ccc(-c4ccc(CN5CCC(CCN6CCCCC6)CC5)cc4)cc3)nc2c1 | 129
91 | CN(C)CCOc1ccc2nc(-c3cccc(OCc4ccccc4)c3)[nH]c2c1C#N | 256
92 | CN1CC=C(C=Cc2c[nH]c3ccccc23)CC1 | 1340
93 | COc1cccc(CNC(=O)NC2CCN(c3ccnc(Nc4ccc(F)cc4)n3)C2)c1 (configuration not stated) | 805
94 | Cc1nc(C)c(-c2ccc(Oc3cc(Cl)cc(Cl)c3)cc2)c(O)c1Cl | 524
95 | Cc1cc(NS(=O)(=O)c2cccc(C(C)N3CCC(N4CCCC4)CC3)c2)ccc1C(C)C (configuration not stated) | 824
96 | c1csc(-c2nc(N3CCCC3)ncc2-c2ccsc2)n1 | 210
97 | Fc1ccc(-c2cc(NCCCn3ccnc3)nc(-c3cccnc3)n2)cc1 | 974
